Ring closure, yield after HPLC, DC50 and IC50 data for six compounds are collected here from patent US12545659B2, “IRAK degraders and uses thereof” (Kymera Therapeutics, Inc., priority 2019, dated 2026).

As usually defined, the DC50 is the concentration giving 50% degradation. As a reminder, the IC50 is the concentration needed to halve the response being measured.

Where two headings read alike, the source gives them in different places.

For series [1] the following is noted: cn_pd bond, 14-membered ring.
Series [2] deals with T1, Ikaros (protein product of gene IKZF1) (Homo sapiens, UniProt Q13422+Q96SW2).
T1 construct: endogenous in cells; host or cells: OCI-LY10
Put plainly: Ikaros degradation in OCI-LY10 (quantitative immunoblotting). It is filed as cell-based. Particulars: OCI-LY10 cells, 6 h, immunoblot relative to actin; read-out: Ikros Degradation in OCI-LY10: DC50. The protocol:
(§1) Degradation of Ikaros (protein product of gene IKZF1) and Aiolos (protein product of gene IKZF3) were determined by quantitative immunoblotting as follows. OCI-LY10 cells, 2×10^6 cells/well, were treated with listed concentrations of IRAK4 degraders or control compounds in 6 well plates for 6 h. Cells were collected, washed with cold PBS, lysed in RIPA buffer (Boston BioProducts BP-115D) with protease/phosphatase inhibitor cocktail (Roche 05892791001/Roche 04906837001) and centrifuged at 13000 RPM for 20 min to precipitate insoluble material. The supernatant fraction was diluted in SDS-PAGE loading buffer (Beyotime Bio P0015) and 20 L of each sample was resolved on 4-12% Bis-Tris SDS-PAGE gels (Novex, WG1402BOX). Resolved samples were transferred to nitrocellulose membranes by wet electro-transfer method at […] for 1.5 h. The membrane was blocked with LICOR blocking buffer (LI-COR, 927-50000) for 1 hour, washed three times with TBST (CST #9997S) for 5 minutes each and incubated with primary antibody prepared in block buffer with 0.1% Tween-20 (Solarbio, P8220) at 4° C. overnight. Ikaros antibody was rabbit monoclonal D6N9Y (CST #14859), at 1:1000 dilution. Aiolos antibody was rabbit monoclonal D1C1E (CST #15103), at 1:1000 dilution. Signal was normalized to mouse anti-beta-Actin monoclonal 8H10D10 (CST #3700) used at 1:10,000 dilution. After incubation in primary antibodies, membranes were washed three times with TBST, 5 minutes each, incubated with fluorescently labeled secondary antibodies anti-rabbit IgG (Licor, 926-32211) at 1:5000 dilution; anti-mouse IgG (LI-COR, 926-68070) at 1:5000 dilution, for 1 hour at RT. After incubation in secondary, membranes were washed three times with TBST, 5 minutes each and read on LICOR Odyssey imager. Data was reported as signal for Ikaros or Aiolos relative to signal for actin, and normalized to DMSO-treated control.
(§2) The letter codes for Ikaros and Aiolos DC50 include: A (<0.05 μM); B (0.05-0.1 μM); C (0.1-0.5 μM); D (0.5-1.0 μM); and E (>1.0 μM).

In the next series the target is T2, IRAK4 (Homo sapiens, UniProt Q9NWZ3).
T2 construct: endogenous in cells; host or cells: OCI-LY10
T2 sequence (Q9NWZ3 1-460): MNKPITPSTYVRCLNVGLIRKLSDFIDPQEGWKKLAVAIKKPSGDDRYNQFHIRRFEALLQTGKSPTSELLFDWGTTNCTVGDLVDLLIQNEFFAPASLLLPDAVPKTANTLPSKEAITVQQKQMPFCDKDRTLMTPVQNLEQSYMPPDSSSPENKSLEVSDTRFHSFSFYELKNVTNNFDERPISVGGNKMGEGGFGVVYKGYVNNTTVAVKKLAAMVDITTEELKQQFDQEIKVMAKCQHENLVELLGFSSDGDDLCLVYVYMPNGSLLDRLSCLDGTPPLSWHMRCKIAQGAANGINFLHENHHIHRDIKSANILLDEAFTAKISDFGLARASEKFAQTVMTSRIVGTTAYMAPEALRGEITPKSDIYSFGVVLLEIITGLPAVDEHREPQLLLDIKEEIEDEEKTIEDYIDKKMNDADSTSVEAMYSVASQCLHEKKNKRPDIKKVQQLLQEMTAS
Put plainly: IRAK4 MSD Degradation in OCI-LY10. It counts as cell-based. Particulars: OCI-LY10 cells. The essentials:
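OCI-LY10 cells treated with 8-dose, 1:3 dilution series (top final 1 to 10 μM) for 4 to 24 h at 37 °C, 5% CO2. Lysate IRAK4 quantified by MSD sandwich immunoassay (mouse 2H9 capture, rabbit Y279 detection, SULFO-TAG anti-rabbit); DC50 from three-parameter logistic fit.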

For series [3], the target named is T3, Aiolos (protein product of gene IKZF3) (Homo sapiens, UniProt Q9UKT9).
T3 construct: endogenous in cells; host or cells: OCI-LY10
As to the kind of experiment: Aiolos degradation in OCI-LY10 (quantitative immunoblotting). It counts as cell-based. As to conditions: OCI-LY10 cells, 6 h, immunoblot relative to actin. The protocol:
as §1, §2
(In general: In western blotting, separated proteins are transferred to a membrane and probed.)

The next series deals with SUDHL-2 cells. Put plainly: CTG Cell Viability Assay - SUDHL-2. It counts as cell-based. As to conditions: Homo sapiens, SU-DHL-2, 96 h. The protocol: (§3) Compound-mediated viability effect on OCI-LY10 or SUDHL-2 was quantitatively determined using the CellTiter-Glo® Luminescent Cell Viability Assay kit from Promega (Catalog number G7570) following manufacturer's recommended procedures. Briefly, OCI-LY10 or SUDHL-2 cells were seeded into 384 well plates (Grenier Bio-One, Catalog number 781080) with a density of 10,000 cells per well. Compounds were then added to the assay plate with final top concentration of 10 M and 1:3 dilution series with total of 9 doses. The final DMSO concentration was normalized to 0.2%. The assay plates were incubated at 37° C. for 4 days under 5% CO2. Then the assay plate was equilibrated at room temperature for 10 minutes. To determine cell viability, L CellTiter Glo reagent was added to each well and the assay plate was centrifuged at 1000 rpm for 30 second, incubated at room temperature for 10 min, and analyzed by detecting the luminescence using a multimode plate reader (EnVision 2105, PerkinElmer). The data was then analyzed by software Prism 7.0 from GraphPad and the dose response curves were fit using a three-parameter logistic equation to calculate IC50.

In another series the test system is OCI-LY10 cells. As to the kind of experiment: CTG Cell Viability Assay - OCI-LY10. It counts as cell-based. As to conditions: Homo sapiens. The protocol:
as §3

For a further series, the system named is U2932 (MYD88 WT line). Put plainly: U2932 viability, CTG. It counts as cell-based. As to conditions: Homo sapiens, in vitro.
In series [4] the test system is SU-DHL2 (MYD88 mutant DLBCL cell line). As to the kind of experiment: SU-DHL2 viability, CTG. It counts as cell-based. As to conditions: Homo sapiens, SU-DHL-2, read-out: SU-DHL2 Viability, CTG IC50.
A further series deals with OCI-LY19 (MYD88 WT line). Put plainly: OCI-LY19 viability, CTG. It counts as cell-based. As to conditions: Homo sapiens, in vitro.
The next series has as its system SU-DHL6 (MYD88 WT line). Put plainly: SU-DHL6 viability, CTG. It is filed as cell-based. Particulars: Homo sapiens, SU-DHL-6, in vitro.
In series [5] the test system is OCI-LY10 (MYD88 mutant DLBCL cell line). As to the kind of experiment: OCI-LY10 viability, CTG. It is filed as cell-based. As to conditions: Homo sapiens, OCI-Ly10, read-out: OCI-LY10 Viability, CTG IC50.
Setting [6] is: 4 hrs incubation, read-out: IRAK4 degradation in OCI-LY10 at 4 hrs: DC50.
The mark [7] stands for this setting: 24 hrs incubation, read-out: IRAK4 degradation in OCI-LY10 at 24 hrs: DC50.
Where [8] appears, read: SUDHL-2 cells, 4 days, CellTiter-Glo, read-out: CTG Cell Viability Assay - SUDHL-2: IC50.
The mark [9] stands for this setting: 96 h, OCI-LY10 cells, 4 days, CellTiter-Glo, read-out: CTG Cell Viability Assay - OCI-LY10: IC50.

T1 sequence (Q13422 whole entry): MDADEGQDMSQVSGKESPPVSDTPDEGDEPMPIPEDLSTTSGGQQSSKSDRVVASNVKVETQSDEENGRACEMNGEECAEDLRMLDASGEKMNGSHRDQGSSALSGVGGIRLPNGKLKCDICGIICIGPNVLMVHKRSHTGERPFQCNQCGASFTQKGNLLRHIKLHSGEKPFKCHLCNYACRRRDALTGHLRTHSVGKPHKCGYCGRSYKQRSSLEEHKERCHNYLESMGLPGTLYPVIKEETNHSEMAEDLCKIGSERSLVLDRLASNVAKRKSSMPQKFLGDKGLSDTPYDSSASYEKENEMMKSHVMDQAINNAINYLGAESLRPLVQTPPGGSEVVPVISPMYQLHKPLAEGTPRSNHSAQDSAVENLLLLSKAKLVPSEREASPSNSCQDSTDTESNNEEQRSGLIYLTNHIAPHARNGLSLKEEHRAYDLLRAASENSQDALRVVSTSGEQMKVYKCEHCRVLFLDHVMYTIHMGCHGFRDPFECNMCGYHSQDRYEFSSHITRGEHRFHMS
T1 sequence (Q96SW2 whole entry): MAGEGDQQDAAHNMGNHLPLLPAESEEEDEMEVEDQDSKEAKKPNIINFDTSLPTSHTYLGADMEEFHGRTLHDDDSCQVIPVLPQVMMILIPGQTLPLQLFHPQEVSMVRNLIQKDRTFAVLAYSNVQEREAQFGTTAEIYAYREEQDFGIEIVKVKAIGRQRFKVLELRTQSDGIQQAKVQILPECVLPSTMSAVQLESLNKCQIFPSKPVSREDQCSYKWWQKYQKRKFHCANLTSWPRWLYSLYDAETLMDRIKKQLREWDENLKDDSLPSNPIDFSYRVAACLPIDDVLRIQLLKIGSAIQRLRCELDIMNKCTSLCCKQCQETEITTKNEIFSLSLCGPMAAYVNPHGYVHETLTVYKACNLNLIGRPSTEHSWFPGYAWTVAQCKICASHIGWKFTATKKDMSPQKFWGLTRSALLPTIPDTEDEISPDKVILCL
T1 sequence (Q16531 whole entry partner): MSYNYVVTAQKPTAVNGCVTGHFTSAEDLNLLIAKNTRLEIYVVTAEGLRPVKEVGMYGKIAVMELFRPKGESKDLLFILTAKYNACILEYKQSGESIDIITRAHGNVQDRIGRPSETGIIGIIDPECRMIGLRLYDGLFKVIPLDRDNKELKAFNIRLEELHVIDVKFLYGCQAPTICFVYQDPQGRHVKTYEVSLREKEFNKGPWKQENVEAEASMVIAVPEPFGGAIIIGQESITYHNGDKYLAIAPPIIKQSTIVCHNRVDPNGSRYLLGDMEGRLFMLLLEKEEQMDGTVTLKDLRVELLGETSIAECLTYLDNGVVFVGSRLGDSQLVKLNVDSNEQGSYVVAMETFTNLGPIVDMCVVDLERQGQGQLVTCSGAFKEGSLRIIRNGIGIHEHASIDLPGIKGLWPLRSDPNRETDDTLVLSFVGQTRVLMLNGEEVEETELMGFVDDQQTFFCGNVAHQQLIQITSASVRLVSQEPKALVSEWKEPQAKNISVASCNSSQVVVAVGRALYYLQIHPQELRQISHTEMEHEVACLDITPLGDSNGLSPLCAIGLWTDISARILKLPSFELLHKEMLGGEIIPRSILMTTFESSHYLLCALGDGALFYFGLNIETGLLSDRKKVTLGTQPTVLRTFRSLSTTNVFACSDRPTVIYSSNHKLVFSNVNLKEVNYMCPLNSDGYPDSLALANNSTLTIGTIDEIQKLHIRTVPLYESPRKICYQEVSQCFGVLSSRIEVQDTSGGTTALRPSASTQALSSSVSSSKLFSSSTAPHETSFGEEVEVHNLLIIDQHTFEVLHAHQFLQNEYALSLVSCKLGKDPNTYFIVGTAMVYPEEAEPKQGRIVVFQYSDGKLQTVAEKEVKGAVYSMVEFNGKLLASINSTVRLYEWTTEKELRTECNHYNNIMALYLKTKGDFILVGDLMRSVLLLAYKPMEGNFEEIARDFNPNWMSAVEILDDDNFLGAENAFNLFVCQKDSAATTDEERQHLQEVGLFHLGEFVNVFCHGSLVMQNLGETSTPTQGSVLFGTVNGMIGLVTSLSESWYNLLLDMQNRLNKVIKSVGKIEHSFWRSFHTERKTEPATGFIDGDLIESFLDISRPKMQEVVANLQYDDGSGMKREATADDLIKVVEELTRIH
T3 sequence (Q9UKT9 whole entry): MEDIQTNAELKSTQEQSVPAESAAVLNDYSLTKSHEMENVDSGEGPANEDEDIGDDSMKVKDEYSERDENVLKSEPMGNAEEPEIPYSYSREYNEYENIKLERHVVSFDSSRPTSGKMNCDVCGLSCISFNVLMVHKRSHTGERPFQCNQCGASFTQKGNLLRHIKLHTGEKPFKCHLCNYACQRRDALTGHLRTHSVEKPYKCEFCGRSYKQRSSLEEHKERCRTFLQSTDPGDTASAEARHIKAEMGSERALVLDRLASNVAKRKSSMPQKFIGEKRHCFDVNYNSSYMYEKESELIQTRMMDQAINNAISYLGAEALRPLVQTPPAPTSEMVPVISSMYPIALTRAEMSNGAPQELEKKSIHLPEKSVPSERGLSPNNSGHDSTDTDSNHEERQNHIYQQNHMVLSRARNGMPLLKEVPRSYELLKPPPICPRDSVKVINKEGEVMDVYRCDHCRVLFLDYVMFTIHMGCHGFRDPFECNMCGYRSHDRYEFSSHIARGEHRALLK
T3 sequence (Q96SW2 whole entry, further chain): as the sequence (Q96SW2 whole entry) above
T3 sequence (Q16531 whole entry partner): as the sequence (Q16531 whole entry partner) above

As to `NC(=O)c1cccc(OCCO[C@@H]2CCN(c3cc4nn(C5CCC(CO)CC5)cc4cc3Br)C2)c1` (some centres unmarked), the ring closure, yield after HPLC in series [1] (the molecule shown is the open-chain precursor, BrettPhos-Pd-G4/BrettPhos/Cs2CO3, dioxane, 53.8 mM, 60.0 °C) came out at 31%.

Take “12-((1R,4R)-4-(hydroxymethyl)cyclohexyl)-12H-5,8,11-trioxa-2-aza-1(5,6)-indazola-4(2,6)-pyridinacycloundecaphan-3-one”: the ring closure, yield after HPLC in series [1] (BrettPhos Pd G4/Cs2CO3, DMA, 21.2 mM, 80.0 °C) worked out at 58%.

Take `COc1cc2nn([C@H]3CC[C@H](CN4CC5(CC(CCNc6cccc7c6C(=O)N(C6CCC(=O)NC6=O)C7=O)C5)C4)CC3)cc2cc1NC(=O)c1cccc(C(C)(F)F)n1` (mixture of isomers) [I-93, 6-(1,1-difluoroethyl)-N-[2-[4-[[6-[2-[[2-(2,6-dioxo-3-piperidyl)-1,3-dioxo-isoindolin-4-yl]amino]ethyl]-2-azaspiro[3.3]heptan-2-yl]methyl]cyclohexyl]-6-methoxy-indazol-5-yl]pyridine-2-carboxamide]: the half-maximal degradation concentration (DC50) was under 50 nM in [2], under 50 nM at IRAK4 (setting [6]), 50 to 100 nM at IRAK4 (setting [7]) and under 50 nM in series [3]. For the same compound, the concentration for half-maximal inhibition (IC50) was 0.1 to 0.5 µM in the series with SUDHL-2 cells (setting [8]) and under 0.05 µM with OCI-LY10 cells (setting [9]).

In the case of `CN(C[C@H]1CC[C@H](n2cc3cc(NC(=O)c4cccc(C(F)(F)F)n4)c(C(C)(C)O)cc3n2)CC1)C1CCN(Cc2cccc3c2n(C)c(=O)n3C2CCC(=O)NC2=O)CC1` (some centres unmarked) [I-1], the IC50 in the series on U2932 (MYD88 WT line) is over 10000 nM; in series [4], over 10000 nM; in the series with OCI-LY19 (MYD88 WT line), over 10000 nM; with SU-DHL6 (MYD88 WT line), 5600 nM; in series [5], over 10000 nM. Also, the DC50 at IRAK4 (setting [7]) was 100 to 500 nM.

Take `COc1cc2nn([C@H]3CC[C@H](CN4CCC5(CC4)CC(CCNc4cccc6c4C(=O)N(C4CCC(=O)NC4=O)C6=O)C5)CC3)cc2cc1NC(=O)c1cccc(C(C)(F)F)n1` (some centres unmarked) [I-63, 6-(1,1-Difluoroethyl)-N-[2-[4-[[2-[2-[[2-(2,6-dioxo-3-piperidyl)-1,3-dioxo-isoindolin-4-yl]amino]ethyl]-7-azaspiro[3.5]nonan-7-yl]methyl]cyclohexyl]-6-methoxy-indazol-5-yl]pyridine-2-carboxamide]: the 50% degradation concentration (DC50) in series [2] was under 50 nM; at IRAK4 (setting [6]) it was under 50 nM; on IRAK4 (setting [7]), 50 to 100 nM; in series [3] it was under 50 nM. Moreover, the IC50 in the series with SUDHL-2 cells (read-out: CTG Cell Viability Assay - SUDHL-2: IC50 (μM)) was in the range of 0.1 to 0.5 µM; with OCI-LY10 cells (OCI-Ly10, 96 h, read-out: CTG Cell Viability Assay - OCI-LY10: IC50 (μM)), 0.05 to 0.1 µM.

As to `COc1cc2nn([C@H]3CC[C@H](CN4CCC5(CC4)CC(CNc4cccc6c4C(=O)N(C4CCC(=O)NC4=O)C6=O)C5)CC3)cc2cc1NC(=O)c1cccc(C(F)(F)F)n1` (some centres unmarked) [I-201, N-[2-[4-[[2-[[[2-(2,6-dioxo-3-piperidyl)-1,3-dioxo-isoindolin-4 yl]amino]methyl]-7-azaspiro[3.5]nonan-7-yl]methyl]cyclohexyl]-6-methoxy-indazol-5-yl]-6-(trifluoromethyl)pyridine-2-carboxamide], the DC50 in series [2] was 50 to 100 nM; on IRAK4 (setting [6]) it was under 50 nM; on IRAK4 (setting [7]) it was 50 to 100 nM; in [3], under 50 nM. Further, the IC50 is over 1 µM in the series on SUDHL-2 cells (setting [8]) and under 0.05 µM in the series on OCI-LY10 cells (setting [9]).
